Measured values from ChEMBL document CHEMBL2069252, “Pyrazole diaminopyrimidines as dual inhibitors of KDR and Aurora B kinases” (Bioorg Med Chem Lett, 2012).
Converted amounts (≈) assume the structure as drawn. The source made the active and inactive calls. No cut-off for these calls is given here.

Key:
Aurora kinase B = Aurora kinase B (Homo sapiens, UniProt Q96GD4); assay: Inhibition of Aurora B kinase by HTRF analysis in presence of 1 mM ATP
NCI-H1299 = assay: Cell cycle arrest in human NCI-H1299 cells assessed as induction of polyploidy after 48 hrs by Hoechst staining-based fluorescence microscopic analysis; type: functional; conditions: NCI-H1299, 48 h
[1] = target: T1, Vascular endothelial growth factor receptor 2 (Homo sapiens, UniProt P35968); assay: Inhibition of KDR by HTRF analysis in presence of 1 mM ATP
T1 sequence (P35968 whole entry): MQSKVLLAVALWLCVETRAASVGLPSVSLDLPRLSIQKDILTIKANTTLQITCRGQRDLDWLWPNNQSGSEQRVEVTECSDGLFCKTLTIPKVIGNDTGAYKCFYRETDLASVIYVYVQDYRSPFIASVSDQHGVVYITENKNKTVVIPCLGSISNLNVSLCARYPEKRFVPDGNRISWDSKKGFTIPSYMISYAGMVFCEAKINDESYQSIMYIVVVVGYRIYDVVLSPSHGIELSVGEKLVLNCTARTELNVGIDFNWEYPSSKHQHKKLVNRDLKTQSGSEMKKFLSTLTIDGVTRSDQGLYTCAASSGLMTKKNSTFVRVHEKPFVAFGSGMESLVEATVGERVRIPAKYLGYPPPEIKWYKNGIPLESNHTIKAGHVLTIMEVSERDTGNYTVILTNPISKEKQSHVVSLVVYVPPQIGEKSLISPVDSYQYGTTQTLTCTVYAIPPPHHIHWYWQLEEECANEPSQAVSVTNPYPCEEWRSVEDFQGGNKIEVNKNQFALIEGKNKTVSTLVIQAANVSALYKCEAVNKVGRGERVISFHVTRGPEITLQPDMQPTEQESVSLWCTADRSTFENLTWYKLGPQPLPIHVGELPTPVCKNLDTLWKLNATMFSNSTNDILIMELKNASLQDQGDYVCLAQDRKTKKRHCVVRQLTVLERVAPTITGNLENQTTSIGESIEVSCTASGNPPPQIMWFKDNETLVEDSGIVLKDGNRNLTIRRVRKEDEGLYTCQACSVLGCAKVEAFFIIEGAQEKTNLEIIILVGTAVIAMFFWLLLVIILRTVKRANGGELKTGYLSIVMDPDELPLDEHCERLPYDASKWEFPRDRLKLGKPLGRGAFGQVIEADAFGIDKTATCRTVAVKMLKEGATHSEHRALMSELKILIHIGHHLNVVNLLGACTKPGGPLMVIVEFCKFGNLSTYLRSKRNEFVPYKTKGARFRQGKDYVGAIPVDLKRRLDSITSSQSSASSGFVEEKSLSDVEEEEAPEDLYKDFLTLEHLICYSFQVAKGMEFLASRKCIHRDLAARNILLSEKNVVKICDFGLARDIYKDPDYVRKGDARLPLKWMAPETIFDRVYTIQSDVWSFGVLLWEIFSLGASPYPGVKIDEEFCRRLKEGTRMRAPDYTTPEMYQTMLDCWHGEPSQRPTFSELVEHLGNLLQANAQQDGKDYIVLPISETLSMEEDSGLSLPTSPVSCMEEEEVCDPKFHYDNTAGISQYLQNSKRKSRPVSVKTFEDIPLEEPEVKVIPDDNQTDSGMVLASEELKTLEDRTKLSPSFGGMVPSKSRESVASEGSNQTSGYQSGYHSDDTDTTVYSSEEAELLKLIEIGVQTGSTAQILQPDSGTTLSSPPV

[2] = target: T1, Vascular endothelial growth factor receptor 2; assay: Inhibition of human KDR autophosphorylation expressed in mouse NIH/3T3 cells; type: cell-based, NIH3T3
[3] = Metabolic stability of the compound in mouse liver microsomes assessed as compound remaining after 30 mins; type: ADME, Microsome; conditions: read-out: Stability
[4] = Aqueous solubility of the compound at pH 7.4 after 24 hrs by chemiluminescent nitrogen detection; type: physicochemical
[5] = AUC in CD1(ICR) mouse at 10 mg/kg, ip; type: ADME, organism-based; set-up: dose 10 mg/kg, route intraperitoneal; conditions: plasma
DOHH-2 = conditions: Homo sapiens
Description: Antitumor activity against human DOHH2 cells xenografted in mouse tumor model assessed as tumor growth inhibition at 10 mg/kg, ip administered Q7d for 3 weeks

Mus musculus [6] = assay: Toxicity in mouse xenografted with human DOHH2 cells assessed as weight loss at 10 mg/kg, ip administered Q7d for 3 weeks; conditions: in vivo, 504 h
Mus musculus [7] = assay: Toxicity in mouse xenografted with human DOHH2 cells assessed as mortality at 10 mg/kg, ip administered Q7d for 3 weeks; conditions: in vivo, 504 h

Aurora kinase B, sequence (Q96GD4 whole entry): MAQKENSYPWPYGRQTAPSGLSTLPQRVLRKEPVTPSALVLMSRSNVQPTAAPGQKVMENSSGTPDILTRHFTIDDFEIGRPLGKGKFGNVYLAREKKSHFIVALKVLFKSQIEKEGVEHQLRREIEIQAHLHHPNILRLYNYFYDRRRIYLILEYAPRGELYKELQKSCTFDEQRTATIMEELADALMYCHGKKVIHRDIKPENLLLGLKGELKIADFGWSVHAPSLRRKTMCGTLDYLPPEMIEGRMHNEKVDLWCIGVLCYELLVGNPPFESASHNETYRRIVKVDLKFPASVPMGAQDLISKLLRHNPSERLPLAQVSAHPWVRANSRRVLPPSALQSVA

Cn1cc(Nc2ncc(Cl)c(N[C@H]3[C@H]4CC[C@H](C4)[C@H]3C(N)=O)n2)cn1
IC50 (Aurora kinase B): 31 nM | EC15 (NCI-H1299): 15 nM | IC50 [1]: 19 nM | IC50 [2]: > 316 nM

NC(=O)[C@@H]1[C@H](Nc2nc(Nc3cnn(CC(=O)O)c3)ncc2Cl)[C@H]2C=C[C@@H]1C2
remaining at 0.5 h [3]: > 95% | IC50 (Aurora kinase B): 32 nM | EC15 (NCI-H1299): 28 nM | solubility at 24 h [4]: 71 µM (≈ 28.7 µg/mL) | IC50 [1]: 1 nM | IC50 [2]: > 316 nM

Cn1cc(Nc2ncc(Cl)c(N[C@@H]3[C@H]4CC[C@H](C4)[C@@H]3C(N)=O)n2)cn1
IC50 (Aurora kinase B): 8 nM | EC15 (NCI-H1299): 1 nM | IC50 [1]: 19 nM | IC50 [2]: 84 nM

NC(=O)[C@@H]1[C@H](Nc2nc(Nc3cnn(CCN4CCOCC4)c3)ncc2Cl)[C@H]2C=C[C@@H]1C2
remaining at 0.5 h [3]: 4% | IC50 (Aurora kinase B): 27 nM | EC15 (NCI-H1299): < 3 nM | solubility at 24 h [4]: 85 µM (≈ 39 µg/mL) | IC50 [1]: 9 nM | IC50 [2]: 78 nM

Cn1cc(Nc2ncc(C(F)(F)F)c(N[C@H]3[C@@H](C(=O)NC4CC4)[C@@H]4C=C[C@H]3C4)n2)cn1
IC50 (Aurora kinase B): 51 nM | EC15 (NCI-H1299): < 1 nM | IC50 [1]: 292 nM

CNC(=O)Cn1cc(Nc2ncc(Cl)c(N[C@H]3[C@@H](C(N)=O)[C@@H]4C=C[C@H]3C4)n2)cn1
remaining at 0.5 h [3]: 88% | IC50 (Aurora kinase B): 26 nM | EC15 (NCI-H1299): 11 nM | solubility at 24 h [4]: 72 µM (≈ 30 µg/mL) | IC50 [1]: 6 nM | IC50 [2]: 89 nM | AUC [5]: 6.68 µM·h

Cn1cc(Nc2ncc(C(N)=O)c(N[C@H]3[C@@H](C(N)=O)[C@@H]4C=C[C@H]3C4)n2)cn1
IC50 (Aurora kinase B): 197 nM | IC50 [1]: 1540 nM

Cn1cc(Nc2ncc([N+](=O)[O-])c(N[C@H]3[C@@H](C(N)=O)[C@@H]4C=C[C@H]3C4)n2)cn1
IC50 (Aurora kinase B): 15 nM | EC15 (NCI-H1299): 51 nM | IC50 [1]: 50 nM | IC50 [2]: > 316 nM

COc1cnc(Nc2cnn(C)c2)nc1N[C@H]1[C@@H](C(N)=O)[C@@H]2C=C[C@H]1C2
IC50 (Aurora kinase B): 145 nM | IC50 [1]: 922 nM

Cn1cc(Nc2nccc(N[C@H]3[C@@H](C(N)=O)[C@@H]4C=C[C@H]3C4)n2)cn1
IC50 (Aurora kinase B): 294 nM | EC15 (NCI-H1299): 93 nM | IC50 [1]: > 12000 nM

Cn1cc(Nc2ncc(C(F)(F)F)c(N[C@H]3[C@@H](C(N)=O)C[C@H]4C[C@@H]3C4(C)C)n2)cn1
IC50 (Aurora kinase B): 43 nM | EC15 (NCI-H1299): 39 nM | IC50 [1]: 264 nM

Cn1cc(Nc2ncc(Cl)c(N[C@@H]3CCC[C@@H]3C(N)=O)n2)cn1
IC50 (Aurora kinase B): 32 nM | EC15 (NCI-H1299): 62 nM | IC50 [1]: 246 nM

NC(=O)Cn1cc(Nc2ncc(Cl)c(N[C@H]3[C@@H](C(N)=O)[C@@H]4C=C[C@H]3C4)n2)cn1
remaining at 0.5 h [3]: 68% | IC50 (Aurora kinase B): 25 nM | EC15 (NCI-H1299): 19 nM | solubility at 24 h [4]: 68 µM (≈ 27.4 µg/mL) | IC50 [1]: 18 nM | IC50 [2]: 167 nM | AUC [5]: 15 µM·h

NC(=O)[C@@H]1[C@H](Nc2nc(Nc3cnn([C@@H]4CCCNC4)c3)ncc2Cl)[C@H]2C=C[C@@H]1C2
remaining at 0.5 h [3]: 48% | IC50 (Aurora kinase B): 12 nM | EC15 (NCI-H1299): 1 nM | solubility at 24 h [4]: 70 µM (≈ 30 µg/mL) | IC50 [1]: 2 nM | IC50 [2]: 44 nM | AUC [5]: 15.7 µM·h

NC(=O)[C@@H]1[C@H](Nc2nc(Nc3cnn(C4CCNCC4)c3)ncc2Cl)[C@H]2C=C[C@@H]1C2
remaining at 0.5 h [3]: 76% | IC50 (Aurora kinase B): 12 nM | EC15 (NCI-H1299): 1 nM | solubility at 24 h [4]: 68 µM (≈ 29.2 µg/mL) | IC50 [1]: 2 nM | IC50 [2]: 55 nM | AUC [5]: 2 µM·h

CCn1cc(Nc2ncc(Cl)c(N[C@H]3[C@@H](C(N)=O)[C@@H]4C=C[C@H]3C4)n2)cn1
remaining at 0.5 h [3]: 13% | IC50 (Aurora kinase B): 8 nM | EC15 (NCI-H1299): < 1 nM | solubility at 24 h [4]: 70 µM (≈ 26.2 µg/mL) | IC50 [1]: 3 nM | IC50 [2]: 8 nM | AUC [5]: 2.54 µM·h

NC(=O)[C@@H]1[C@H](Nc2nc(Nc3cnn(Cc4ccccc4)c3)ncc2Cl)[C@H]2C=C[C@@H]1C2
remaining at 0.5 h [3]: < 1% | IC50 (Aurora kinase B): 12 nM | EC15 (NCI-H1299): < 1 nM | solubility at 24 h [4]: 4 µM (≈ 1.74 µg/mL) | IC50 [1]: 7 nM | IC50 [2]: 42 nM

CNC(=O)[C@@H]1[C@H](Nc2nc(Nc3cnn(C)c3)ncc2C(F)(F)F)[C@H]2C=C[C@@H]1C2
IC50 (Aurora kinase B): 45 nM | EC15 (NCI-H1299): < 1 nM | IC50 [1]: 68 nM | IC50 [2]: > 316 nM

Cc1cnc(Nc2cnn(C)c2)nc1N[C@H]1[C@@H](C(N)=O)[C@@H]2C=C[C@H]1C2
IC50 (Aurora kinase B): 252 nM | EC15 (NCI-H1299): 11 nM | IC50 [1]: 467 nM

Cn1cc(Nc2ncc(C(F)(F)F)c(N[C@H]3[C@@H](C(N)=O)[C@@H]4C=C[C@H]3C4)n2)cn1
IC50 (Aurora kinase B): 28 nM | EC15 (NCI-H1299): 3 nM | IC50 [1]: 12 nM | IC50 [2]: 35 nM

Cn1cc(Nc2ncc(C(F)(F)F)c(N[C@@H]3[C@H]4CC[C@H](C4)[C@@H]3C(N)=O)n2)cn1
IC50 (Aurora kinase B): 66 nM | EC15 (NCI-H1299): 10 nM | IC50 [1]: 74 nM | IC50 [2]: 61 nM

Cn1cc(Nc2ncc(Cl)c(N[C@H]3[C@@H](C(N)=O)[C@@H]4CC[C@H]3O4)n2)cn1
IC50 (Aurora kinase B): 118 nM | EC15 (NCI-H1299): 132 nM | IC50 [1]: 693 nM

Cc1cc(Nc2ncc(F)c(N[C@H]3[C@@H](C(N)=O)[C@@H]4C=C[C@H]3C4)n2)ccc1N1CCN(C)CC1
IC50 (Aurora kinase B): 54 nM | EC15 (NCI-H1299): 1 nM

NC(=O)[C@@H]1[C@H](Nc2nc(Nc3cnn(CCO)c3)ncc2Cl)[C@H]2C=C[C@@H]1C2
remaining at 0.5 h [3]: 45% | IC50 (Aurora kinase B): 19 nM | EC15 (NCI-H1299): < 1 nM | solubility at 24 h [4]: 70 µM (≈ 27.3 µg/mL) | IC50 [1]: 6 nM | IC50 [2]: 48 nM | AUC [5]: 5 µM·h

Cn1cc(Nc2ncc(F)c(N[C@H]3[C@@H](C(N)=O)[C@@H]4C=C[C@H]3C4)n2)cn1
IC50 (Aurora kinase B): 29 nM | EC15 (NCI-H1299): 111 nM | IC50 [1]: 329 nM

Cn1cc(Nc2ncc(Cl)c(N[C@H]3[C@@H](C(N)=O)[C@@H]4C=C[C@H]3C4)n2)cn1
TGI (DOHH-2): Active | remaining at 0.5 h [3]: 44% | IC50 (Aurora kinase B): 29 nM | EC15 (NCI-H1299): < 3 nM | solubility at 24 h [4]: 78 µM (≈ 28.1 µg/mL) | IC50 [1]: 14 nM | Activity (Mus musculus [6]): Toxic | Activity (Mus musculus [7]): Toxic | IC50 [2]: 20 nM | AUC [5]: 11.1 µM·h

Cn1cc(Nc2ncc(C(F)(F)F)c(N[C@H]3C[C@@H]4CC[C@H]3C4)n2)cn1
IC50 (Aurora kinase B): 61 nM | EC15 (NCI-H1299): > 300 nM | IC50 [1]: 827 nM

Nc1ncc(-c2cnn(CCO)c2)c2scc(-c3ccc(NC(=O)Nc4cccc(F)c4)cc3)c12 [ILORASERTIB]
EC15 (NCI-H1299): 12 nM

Cn1cc(Nc2ncc(C(F)(F)F)c(Nc3ccccc3C(N)=O)n2)cn1
IC50 (Aurora kinase B): 16 nM | EC15 (NCI-H1299): 11 nM | IC50 [1]: 431 nM

Cn1cc(Nc2ncc(C(F)(F)F)c(N[C@H]3[C@@H](C(=O)NCCO)[C@@H]4C=C[C@H]3C4)n2)cn1
IC50 (Aurora kinase B): 99 nM | EC15 (NCI-H1299): < 1 nM | IC50 [1]: 266 nM

NC(=O)[C@@H]1[C@H](Nc2nc(Nc3cnn(C[C@H]4CCCN4)c3)ncc2Cl)[C@H]2C=C[C@@H]1C2
remaining at 0.5 h [3]: 48% | IC50 (Aurora kinase B): 15 nM | EC15 (NCI-H1299): 11 nM | solubility at 24 h [4]: 86 µM (≈ 36.9 µg/mL) | IC50 [1]: 15 nM | IC50 [2]: 49 nM | AUC [5]: 12.7 µM·h

Cn1cc(Nc2ncc(Cl)c(N[C@@H]3CC[C@@H]3C(N)=O)n2)cn1
IC50 (Aurora kinase B): 44 nM | EC15 (NCI-H1299): 93 nM | IC50 [1]: 153 nM

Cn1cc(Nc2ncc(Cl)c(N[C@@H]3CCCC[C@@H]3C(N)=O)n2)cn1
IC50 (Aurora kinase B): 135 nM | IC50 [1]: 169 nM
